US8080529B2, “Macrolides with anti-inflammatory activity” (Glaxo Group Limited, priority 2005, dated 2011)
Like-named read-outs stand apart in the source and are kept apart here.

Key:
TNF-α [1] = assay: Inhibition of TNF-α production by stimulated human peripheral blood leukocytes in vitro; format: cell-based; conditions: Homo sapiens, Leukocyte, read-out: Percentage of inhibition of TNF-α production
Summary of the method: (§1)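 Compound at 10 or 50 μM, given 2 h ahead of an overnight LPS, PMA or zymosan challenge, was tested on human PBL in RPMI with 10% FCS at 37 °C. Sandwich ELISA quantified supernatant cytokine.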

TNF-α [2] = assay: Lipopolysaccharide induced TNF-α production in Balb/cJ mice; format: in vivo; conditions: Mus musculus, ip, 1.5 h; 10 mg/kg intraperitoneally, 30 min before LPS; 90 min after LPS; read-out: % inhibition of TNF-α production (plasma)
IL-8 = assay: Inhibition of IL-8 production by stimulated human peripheral blood leukocytes in vitro; format: cell-based; conditions: Homo sapiens, Leukocyte, read-out: Percentage of inhibition of IL-8 production
Summary of the method: as §1

IL-1α = assay: Inhibition of IL-1 production by stimulated human peripheral blood leukocytes in vitro; format: cell-based; conditions: Homo sapiens, Leukocyte, read-out: Percentage of inhibition of IL-1α production
IL-6 = assay: Inhibition of IL-6 production by stimulated human peripheral blood leukocytes in vitro; format: cell-based; conditions: Homo sapiens, Leukocyte, read-out: Percentage of inhibition of IL-6 production
Summary of the method: as §1

A549 = assay: Cytotoxicity assay (MTT), A549 cell line; format: cell-based; conditions: 24 h
Summary of the method: (§2)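 Viability was read as MTT-formazan absorbance at 490 nm after 0.5-2 h with reagent. This followed 24 h compound exposure (50 μM, 12.5 μM) at 37° C in RPM medium. Result expressed as OD490 treated over untreated cells ×100.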

[3] = test system: human peripheral blood mononuclear cells (PBMC); assay: Effects on human T-cell proliferation in vitro (3H-thymidine incorporation); format: cell-based; conditions: Homo sapiens, PBMC, read-out: Percentage of inhibition of proliferation of stimulated PBMC
Summary of the method: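 Proliferation of human peripheral blood mononuclear cells (PBMC) was assessed in the presence of test compounds. During the final 18 h of culture each well received 1 μCi of ^3H-thymidine. Cells were then collected onto a 96-well filter with a multiple cell harvester, and ^3H-thymidine incorporation was counted on a TopCount NXT to give percentage inhibition of proliferation.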

Hep G2 = assay: Cytotoxicity assay (MTT), Hep G2 cell line; format: cell-based; conditions: 24 h
Summary of the method: as §2

| Compound | inhibition at 10 µM (TNF-α [1]; LPS-stimulated PBL) | inhibition at 10 µM (TNF-α [1]; PMA-stimulated PBL) | inhibition at 10 µM (TNF-α [1]; zymosan-stimulated PBL) | inhibition at 50 µM (TNF-α [1]; LPS-stimulated PBL) | inhibition at 50 µM (TNF-α [1]; PMA-stimulated PBL) | inhibition at 50 µM (TNF-α [1]; zymosan-stimulated PBL) | inhibition in vivo at 10 mg/kg (TNF-α [2]) | inhibition at 10 µM (IL-8; LPS-stimulated PBL) | inhibition at 10 µM (IL-8; PMA-stimulated PBL) | inhibition at 10 µM (IL-8; zymosan-stimulated PBL) | inhibition at 50 µM (IL-8; LPS-stimulated PBL) | inhibition at 50 µM (IL-8; PMA-stimulated PBL) | inhibition at 50 µM (IL-8; zymosan-stimulated PBL) | inhibition at 10 µM (IL-1α; LPS-stimulated PBL) | inhibition at 10 µM (IL-1α; PMA-stimulated PBL) | inhibition at 10 µM (IL-1α; zymosan-stimulated PBL) | inhibition at 50 µM (IL-1α; LPS-stimulated PBL) | inhibition at 50 µM (IL-1α; PMA-stimulated PBL) | inhibition at 50 µM (IL-1α; zymosan-stimulated PBL) | inhibition at 10 µM (IL-6; LPS-stimulated PBL) | further results |
| --- | --- | --- | --- | --- | --- | --- | --- | --- | --- | --- | --- | --- | --- | --- | --- | --- | --- | --- | --- | --- | --- |
| CC[C@H]1OC(=O)[C@H](C)[C@@H](O[C@H]2C[C@@](C)(OC)[C@@H](OC(=O)CCN3CCCN(CCCN4CCCC4)CC3)[C@H](C)O2)[C@H](C)[C@@H](O[C@@H]2O[C@H](C)C[C@H](N(C)C)[C@H]2O)[C@](C)(OC)C[C@@H](C)C(=O)N[C@H](C)[C@@H](O)[C@]1(C)O [Example 34] | 55% | 86% | 65% | 96% | 100% | 100% | 78% | 21% | 33% | 32% | 87% | 76% | 81% | 69% | 86% | 77% | 82% | 100% | 99% | 28% | inhibition at 10 µM (IL-6; PMA-stimulated PBL): 66%; inhibition at 10 µM (IL-6; zymosan-stimulated PBL): 66%; inhibition at 50 µM (IL-6; LPS-stimulated PBL): 91%; inhibition at 50 µM (IL-6; PMA-stimulated PBL): 95%; inhibition at 50 µM (IL-6; zymosan-stimulated PBL): 99%; Percentage of inhibition of cell growth (A549; 12.5 μM): 0%; Percentage of inhibition of cell growth (A549; 50 μM): 1%; inhibition at 10 µM ([3]; PHA): 66%; inhibition at 50 µM ([3]; PHA): 99%; inhibition at 10 µM ([3]; PMA + iono.): 0%; inhibition at 50 µM ([3]; PMA + iono.): 87%; Percentage of inhibition of cell growth (Hep G2; 12.5 μM): 7%; Percentage of inhibition of cell growth (Hep G2; 50 μM): 1% |
| CC[C@H]1OC(=O)[C@H](C)[C@@H](O[C@H]2C[C@@](C)(OC)[C@@H](OC(=O)CCN(CC)CC)[C@H](C)O2)[C@H](C)[C@@H](O[C@@H]2O[C@H](C)C[C@H](N(C)C)[C@H]2O)[C@](C)(O)C[C@@H](C)CN(C)[C@H](C)[C@@H](O)[C@]1(C)O [Example 48, 4″-O-(3-diethylamino-propionyl)-azithromycin] | 49% | 31% | 82% | 87% | 90% | 97% | 52% | 36% | 25% | 49% | 85% | 83% | 90% | 64% | 38% | 85% | 79% | 78% | 92% | 57% | inhibition at 10 µM (IL-6; PMA-stimulated PBL): 30%; inhibition at 10 µM (IL-6; zymosan-stimulated PBL): 73%; inhibition at 50 µM (IL-6; LPS-stimulated PBL): 97%; inhibition at 50 µM (IL-6; PMA-stimulated PBL): 84%; inhibition at 50 µM (IL-6; zymosan-stimulated PBL): 97%; Percentage of inhibition of cell growth (A549; 12.5 μM): 0%; Percentage of inhibition of cell growth (A549; 50 μM): 0%; inhibition at 10 µM ([3]; PHA): 93%; inhibition at 50 µM ([3]; PHA): 100%; inhibition at 10 µM ([3]; PMA + iono.): 81%; inhibition at 50 µM ([3]; PMA + iono.): 100%; Percentage of inhibition of cell growth (Hep G2; 12.5 μM): 0%; Percentage of inhibition of cell growth (Hep G2; 50 μM): 9% |
| CC[C@H]1OC(=O)[C@H](C)C(O[C@H]2C[C@@](C)(OC)[C@@H](OC(=O)CCN(CC)CC)[C@H](C)O2)[C@H](C)[C@@H](O[C@@H]2O[C@H](C)C[C@H](N(C)C)[C@H]2O)[C@](C)(OC)C[C@@H](C)C(=O)[C@H](C)[C@H](O)[C@]1(C)O (stereo partly drawn) [Example 49, 4″-O-(3-Diethylamino-propionyl)-6-O-methylerithromycin A] | 69% | 37% | 70% | 91% | 86% | 93% | 43% | 44% | 0% | 15% | 86% | 95% | 54% | 84% | 35% | 76% | 86% | 84% | 25% | 70% | inhibition at 10 µM (IL-6; PMA-stimulated PBL): 76%; inhibition at 10 µM (IL-6; zymosan-stimulated PBL): 76%; inhibition at 50 µM (IL-6; LPS-stimulated PBL): 99%; inhibition at 50 µM (IL-6; PMA-stimulated PBL): 86%; inhibition at 50 µM (IL-6; zymosan-stimulated PBL): 97%; Percentage of inhibition of cell growth (A549; 12.5 μM): 0%; Percentage of inhibition of cell growth (A549; 50 μM): 6%; inhibition at 10 µM ([3]; PHA): 44%; inhibition at 50 µM ([3]; PHA): 99%; inhibition at 10 µM ([3]; PMA + iono.): 24%; inhibition at 50 µM ([3]; PMA + iono.): 100%; Percentage of inhibition of cell growth (Hep G2; 12.5 μM): 5%; Percentage of inhibition of cell growth (Hep G2; 50 μM): 26% |
